Test results reported in patent US4564619A, “Carbostyril derivative” (Otsuka Pharmaceutical Co., Ltd., priority 1982, dated 1986).

Tests used:
[1] = test system: collagen-induced aggregation in rabbit platelets; test: Inhibition of collagen-induced platelet aggregation in rabbit platelet rich plasma; assay type: cell-based; settings: Oryctolagus cuniculus, read-out: Inhibition rate of collagen-induced aggregation; for inhibition at 100 µM (stock): Concentration of the test compound solution 10^-4 mole; for inhibition at 10 µM (stock): Concentration of the test compound solution 10^-5 mole
Summary of the method: (§1)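 Citrated rabbit PRP adjusted to 600,000 platelets/μl with PPP, preincubated with test compound 1 min at 37° C, then challenged with ADP (solution prepared at 7.5×10^-5 M) or collagen (solution at 200 μg/ml). Aggregation followed by light transmittance; % inhibition relative to control aggregation rate.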

[2] = test system: ADP-induced aggregation in rabbit platelets; test: Inhibition of ADP-induced platelet aggregation in rabbit platelet rich plasma; assay type: cell-based; settings: Oryctolagus cuniculus, read-out: Inhibition rate of ADP-induced aggregation; for inhibition at 100 µM (stock): Concentration of the test compound solution 10^-4 mole; for inhibition at 10 µM (stock): Concentration of the test compound solution 10^-5 mole
Summary of the method: as §1

coronary artery = test: Increased amount of the blood flow in coronary artery, intravenous administration, anesthetized dog; assay type: in vivo
Procedure: The change of blood flow in coronary artery and the change of blood pressure were measured by a method according to Yakura et al., [Japan Journal of Pharmacology, Vol. 57, pages 380-391 (1961)] and according to Taira, et al. [Clin. Exp. Pharmacol. Physiol., Vol. 6, pages 301-316, (1976)].
An adult bastard dog of either sex weighing 8-13 kg was anesthetized with sodium pentobarbital at the rate of 30 mg/kg by intraveneous administration, then the dog was fixed in supination and was theracotomized under a condition of forced breathing. After another intraveneous administration of sodium heparin at the rate of 500 U/kg, 100 U/kg per hour, the dog was subjected to the following experiments.
(2) Intraveneous administration
Morawitz's cannula was cannulated to the coronary sinus venosus through the auricula dextra cordis, and the blood in vein was circulated to the right carotid. The blood flow was measured by an electromagnetic blood flow meter equipped with a blood flow observation probe in the extracorporeal circulation path of the vein. The systolic force was measured by a systolometer (pick-up) placed at the left ventricle of heart, the blood pressure was measured from the femoral artery, and the heart rate was measured from the pulse. A compound to be tested was administered through the cannula being cannulated in femoral vein. The increased amount of the blood flow in coronary artery after the administration of the test compound is shown in Table 4, also the change of blood pressure is shown in Table 5.

[3] = Change of blood pressure, intravenous administration, anesthetized dog; assay type: in vivo; design: unit not given here; settings: femoral artery
Summary of the method: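 Pentobarbital-anesthetized (30 mg/kg i.v.), heparinized, thoracotomized dogs of either sex, 8-13 kg, under forced breathing; compound given via femoral vein. Coronary sinus outflow measured by electromagnetic flowmeter in an extracorporeal venous circuit to the carotid; blood pressure recorded from femoral artery.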

SMILES | inhibition at 100 µM (stock) [1] [%] | inhibition at 10 µM (stock) [1] [%] | inhibition at 100 µM (stock) [2] [%] | inhibition at 10 µM (stock) [2] [%] | Increased amount of the blood flow in coronary artery (coronary artery; 10 micrograms/kg) [mL/min] | Increased amount of the blood flow in coronary artery (coronary artery; 30 micrograms/kg) [mL/min] | Increased amount of the blood flow in coronary artery (coronary artery; 100 micrograms/kg) [mL/min] | Increased amount of the blood flow in coronary artery (coronary artery; 300 micrograms/kg) [mL/min] | Change of blood pressure ([3]; 3 micrograms/kg) | Change of blood pressure ([3]; 10 micrograms/kg) | Change of blood pressure ([3]; 30 micrograms/kg) | Change of blood pressure ([3]; 100 micrograms/kg) | Change of blood pressure ([3]; 300 micrograms/kg) | Increased amount of the blood flow in coronary artery (coronary artery; 3 micrograms/kg) [mL/min]
COC(=O)C1=C(C)NC(C)=C(C(=O)OCCCOc2ccc3c(c2)NC(=O)CC3)C1c1cccc([N+](=O)[O-])c1 (stereo not shown) [Compound 6, 7-{3-[2,6-Dimethyl-5-methoxycarbonyl-4-(3-nitrophenyl)-1,4-dihydropyridin-3-carboxy]-propoxy}-3,4-dihydrocarbostyril] | 19 | 3 | 15 | 6 | 3 | 25 | 58 | 64 | -3 | -5 | -15 | -32 | -44 | –
COC(=O)C1=C(C)NC(C)=C(C(=O)OCCCOc2ccc(O)c3c2CCC(=O)N3)C1c1cccc([N+](=O)[O-])c1 (stereo not shown) [Compound 7, 5-{3-[2,6-Dimethyl-5-methoxycarbonyl-4-(3-nitrophenyl)-1,4-dihydropyridin-3-carboxy]-propoxy}-8-hydroxy-3,4-dihydrocarbostyril] | 15 | 3 | 14 | 3 | – | 1 | 15 | 47 | – | -2 | -4 | -9 | -14 | –
COC(=O)C1=C(C)NC(C)=C(C(=O)OCCCOc2ccc3[nH]c(=O)ccc3c2)C1c1cccc([N+](=O)[O-])c1 (stereo not shown) [Compound 8, 6-{3-[2,6-Dimethyl-5-methoxycarbonyl-4-(3-nitrophenyl)-1,4-dihydropyridin-3-carboxy]-propoxy}carbostyril] | 99 | 27 | 76 | 10 | 1 | 2 | 12 | 56 | – | – | -3 | -16 | -33 | –
COC(=O)C1=C(C)NC(C)=C(C(=O)OCCCOc2cccc3c2NC(=O)CC3)C1c1cccc([N+](=O)[O-])c1 (stereo not shown) [Compound 9, 8-{3-[2,6-Dimethyl-5-methoxycarbonyl-4-(3-nitrophenyl)-1,4-dihydropyridin-3-carboxy]-propoxy}-3,4-dihydrocarbostyril] | 16 | 2 | 12 | 7 | 17 | 47 | 66 | 81 | -14 | -28 | -36 | -41 | -36 | 4
COC(=O)C1=C(C)NC(C)=C(C(=O)OCCOc2ccc3[nH]c(=O)ccc3c2)C1c1cccc([N+](=O)[O-])c1 (stereo not shown) [Compound 10, 6-{2-[2,6-Dimethyl-5-methoxycarbonyl-4-(3-nitrophenyl)-1,4-dihydropyridin-3-carboxy]-ethoxy}carbostyril] | 100 | 50 | 100 | 27 | 2 | 5 | 23 | 43 | – | -5 | -9 | -13 | -34 | –
